Results taken from US12187727B2, “Methods for antagonizing a melanocortin 4 receptor” (Pfizer Inc., priority 2020, dated 2025).
Like-named read-outs stand apart in the source and are kept apart here.

What was measured:
[1] = target: human Melanocortin-4 receptor (MC4R) (Homo sapiens (Human), UniProt P32245); assay: Functional in vitro MC4R antagonist potency assay (cAMP HTRF in CHO cells); format: cell-based
In short: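 CHO cells stably expressing human MC4R were preincubated 30 min at 37 °C with compound ([…], 0.1% DMSO), then stimulated 30 min with EC80 αMSH (200 nM). Intracellular cAMP quantified by HTRF competitive immunoassay and normalized to agonist-stimulated and vehicle-only wells.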

[2] = target: hMC4R (Homo sapiens (Human), UniProt P32245); assay: In vitro binding affinity assay using hMC4R (radioligand competition binding, [125I]-(Nle4, D-Phe7)-α-MSH); settings: geometric mean
hMC4R, sequence (P32245 whole entry): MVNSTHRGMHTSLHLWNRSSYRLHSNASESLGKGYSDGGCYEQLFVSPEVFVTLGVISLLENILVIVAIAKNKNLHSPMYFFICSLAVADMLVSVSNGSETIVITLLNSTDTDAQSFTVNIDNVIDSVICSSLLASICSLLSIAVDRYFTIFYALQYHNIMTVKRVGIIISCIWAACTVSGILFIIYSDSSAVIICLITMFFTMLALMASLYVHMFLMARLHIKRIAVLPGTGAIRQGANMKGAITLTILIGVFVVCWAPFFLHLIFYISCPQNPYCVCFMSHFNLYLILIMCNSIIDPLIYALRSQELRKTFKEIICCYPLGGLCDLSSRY
Experimental: Example AA. In Vitro Binding Affinity Assay Using hMC4R
The binding affinity of test compounds at the […] (hMC4R) was assessed using a radioligand competition binding assay. […] Cell membranes were bulked and frozen until the assay was performed.
Compounds were solubilized in 100% dimethyl sulfoxide (DMSO) to a concentration of 30 mM. A 10-point intermediate dilution series using half log dilutions was created in 100% DMSO with a top concentration of 0.03 mM. […] The final compound range in the assay was 300 nM to 0.01 nM with a final DMSO concentration of 1%. […] The exact concentration of radioligand used for each experiment was determined by liquid scintillation counting and adjusted if necessary.
Frozen hMC4R cell membranes were thawed and Dounce homogenized. Homogenates were resuspended in assay buffer to a concentration of 2 μg per well. […] The plates were incubated for 2 hours at room temperature.
The raw data (expressed as counts per minute) were analyzed using ActivityBase (IDBS Data Management Software). […] Equilibrium dissociation constant for inhibitor of ligand and receptor interaction (Ki) values were then calculated from the IC50 values using the Cheng-Prusoff equation: Ki=IC50/(1+([L]/Kd)), where [L] is the concentration of the radioligand used in the experiment and Kd is the affinity of the radioligand (determined in separate saturation experiments).

[3] = read-out: Kb (nM) Antagonist geometric mean
[4] = read-out: Ki (nM) geometric mean
[5] = human MC4R in CHO cells, cAMP HTRF, 200 nM aMSH challenge, Kb from IC50 by Leff-Dougall equation, geometric mean, read-out: Kb (nM) Antagonist geometric

human Melanocortin-4 receptor (MC4R), sequence (P32245 whole entry): as above

| Compound | Ki [2, 4] [nM] | also measured |
| --- | --- | --- |
| Cc1nc(OC(F)F)cc([C@@H](C)C(=O)N2CC[C@@]3(CCc4cc(-c5ncccn5)c(C)nc4N3)C2)n1 (single isomer, unassigned) [Example 45] | 0.95 | Kb [1, 3]: 0.76 nM |
| COc1cc([C@](C)(F)C(=O)N2CC[C@@]3(CCc4cc(-c5ncccn5)c(C)nc4N3)C2)c(F)cn1 (single isomer, unassigned) [Example 149] | – | Kb [1, 5]: 7.9 nM; Ki ([2]; read-out: Ki (nM) geometric): 1.8 nM |
| COc1cc([C@@H](C)C(=O)N2CC[C@@]3(CCc4ccc(C)nc4N3)C2)nc(C)n1 (single isomer, unassigned) [Example 26, 2-(6-methoxy-2-methylpyrimidin-4-yl)-1-(7-methyl-3,4-dihydro-1H-spiro[1,8-naphthyridine-2,3′-pyrrolidin]-1′-yl)propan-1-one] | 210 | Kb [1, 3]: > 97 nM |
| Cc1nc2c(cc1-c1ncccn1)CC[C@@]1(CCN(C(=O)[C@H](C)c3cc(F)c(F)c(F)c3)C1)N2 (single isomer, unassigned) [Example 56] | 0.51 | Kb [1, 3]: 0.8 nM |
| COc1cc([C@@H](C)C(=O)N2CC[C@@]3(CCc4ccc(C)nc4N3)C2)nc(C)n1 (single isomer, unassigned) [Example 25, 2-(6-methoxy-2-methylpyrimidin-4-yl)-1-(7-methyl-3,4-dihydro-1H-spiro[1,8-naphthyridine-2,3′-pyrrolidin]-1′-yl)propan-1-one] | 220 | Kb [1, 3]: > 97 nM |
| COc1nccc([C@@H](C)C(=O)N2CC[C@@]3(CCc4cc(-c5ncccn5)c(C)nc4N3)C2)c1F (single isomer, unassigned) [Example 58] | 190 | Kb [1, 3]: > 62 nM |
| COc1cc([C@@H](C)C(=O)N2CC[C@@]3(CCc4cc(-c5nc(OC)n(C)n5)c(C)nc4N3)C2)c(F)cn1 (single isomer, unassigned) [Example 113] | – | Kb [1, 5]: 8 nM; Ki ([2]; read-out: Ki (nM) geometric): 17 nM |
| Cc1nc2c(cc1-c1ncccn1)CC[C@@]1(CCN(C(=O)C(C)c3ccc(OC(F)F)nc3)C1)N2 (single isomer, unassigned) [Example 6] | 0.44 | Kb [1, 3]: 8.5 nM |
| COc1cc([C@@H](C)C(=O)N2CC[C@@]3(CCc4cc(-c5nnn(C)n5)c(C)nc4N3)C2)nc(C(F)F)n1 (single isomer, unassigned) [Example 128] | – | Kb [1, 5]: 3.8 nM; Ki ([2]; read-out: Ki (nM) geometric): 10 nM |
| COc1cc([C@@H](C)C(=O)N2CC[C@@]3(CCc4cc(-c5ncccn5)c(C)nc4N3)C2)c(C(F)F)cn1 (single isomer, unassigned) [Example 36] | 0.52 | Kb [1, 3]: 0.19 nM |
| COc1cc([C@@H](C)C(=O)N2CC[C@@]3(CCc4cc(-c5ncccn5)c(C)nc4N3)C2)cc(OC(F)F)n1 (single isomer, unassigned) [Example 193] | – | Ki ([2]; read-out: Ki (nM) geometric): 28 nM |
| Cc1ccc2c(n1)NC1(CCN(C(=O)Cc3ccc(F)cc3)C1)CC2C (single isomer, unassigned) [Example 9, 1-(4,7-dimethyl-3,4-dihydro-1H-spiro[1,8-naphthyridine-2,3′-pyrrolidin]-1′-yl)-2-(4-fluorophenyl)ethan-1-one] | 380 | – |
| Cc1nc2c(cc1-c1ncccn1)CC[C@@]1(CCN(C(=O)C(C)c3cc(OC(F)(F)F)ncc3Cl)C1)N2 (single isomer, unassigned) [Example 63] | 94 | – |
| Cc1nc2c(cc1-c1cnn(C)c1)CCC1(CCN(C(=O)Cc3ccc(F)cc3)C1)N2 (single isomer, unassigned) [Example 19, 2-(4-fluorophenyl)-1-[7-methyl-6-(1-methyl-1H-pyrazol-4-yl)-3,4-dihydro-1H-spiro[1,8-naphthyridine-2,3′-pyrrolidin]-1′-yl]ethan-1-one] | > 220 | – |
| Cc1ccc2c(n1)NC1(CCN(C(=O)Cc3ccc(F)cc3)C1)CC2C (single isomer, unassigned) [Example 11, 1-(4,7-dimethyl-3,4-dihydro-1H-spiro[1,8-naphthyridine-2,3′-pyrrolidin]-1′-yl)-2-(4-fluorophenyl)ethan-1-one] | > 2200 | – |
| COc1cc([C@@H](C)C(=O)N2CC[C@@]3(CCc4cc(-c5nc(N(C)C)cc(C(F)(F)F)n5)c(C)nc4N3)C2)c(F)cn1 [Example 185, (2R)-1-{(2S)-6-[4-(dimethylamino)-6-(trifluoromethyl)pyrimidin-2-yl]-7-methyl-3,4-dihydro-1H-spiro[1,8-naphthyridine-2,3′-pyrrolidin]-1′-yl}-2-(5-fluoro-2-methoxypyridin-4-yl)propan-1-one] | – | Ki ([2]; read-out: Ki (nM) geometric): 5.5 nM |
| COc1cc(OC(F)F)cc([C@@H](C)C(=O)N2CC[C@@]3(CCc4cc(-c5ncccn5)c(C)nc4N3)C2)c1 (single isomer, unassigned) [Example 61] | 40 | – |
| Cc1nc2c(cc1-c1ncccn1)CC[C@@]1(CCN(C(=O)C(C)c3ccc(OC(F)F)nc3)C1)N2 (single isomer, unassigned) [Example 5] | > 200 | – |
| COc1cc([C@@H](C)C(=O)N2CC[C@@]3(CCc4cc(-c5ncccn5)c(C)nc4N3)C2)c(C(F)F)cn1 (single isomer, unassigned) [Example 37] | 180 | – |
| Cc1ccc2c(n1)NC1(CCN(C(=O)Cc3ccc(F)cc3)C1)CC2C (single isomer, unassigned) [Example 12, 1-(4,7-dimethyl-3,4-dihydro-1H-spiro[1,8-naphthyridine-2,3′-pyrrolidin]-1′-yl)-2-(4-fluorophenyl)ethan-1-one] | > 2200 | – |
| Cc1nc2c(cc1-c1ncccn1)CC[C@@]1(CCN(C(=O)[C@H](C)c3cc(OC(F)F)ncc3F)C1)N2 (single isomer, unassigned) [Example 77] | 84 | – |
| Cc1nc2c(cc1-c1ncccn1)CC[C@@]1(CCN(C(=O)[C@H](C)c3cc(C(F)(F)F)ncc3Cl)C1)N2 (single isomer, unassigned) [Example 38] | > 200 | – |
| Cc1nc2c(cc1-c1ncccn1)CC[C@@]1(CCN(C(=O)[C@H](C)c3cc(OC(F)(F)F)ncc3F)C1)N2 (single isomer, unassigned) [Example 75] | 180 | – |

Further lines, with some results ahead:

| Ki [2, 4] [nM] | Compound | also measured |
| --- | --- | --- |
| 86 | COc1cc([C@@H](C)C(=O)N2CC[C@@]3(CCc4cc(-c5nc(C(F)(F)F)n(C)n5)c(C)nc4N3)C2)c(Cl)cn1 (single isomer, unassigned) [Example 95] | Kb [1, 3]: 7.5 nM |
| 0.62 | Cc1nc2c(cc1-c1ncccn1)CC[C@@]1(CCN(C(=O)[C@H](C)c3cc(OC(F)F)ncc3F)C1)N2 (single isomer, unassigned) [Example 78] | Kb [1, 3]: 1.2 nM |
| 120 | Cc1nc2c(cc1-c1ncccn1)CC[C@@]1(CCN(C(=O)[C@H](C)c3cc(N(C)C)ncc3F)C1)N2 (single isomer, unassigned) [Example 82] | – |
| > 250 | Cc1nc2c(cc1-c1ncccn1)CC[C@@]1(CCN(C(=O)[C@H](C)c3cc(C(F)(F)F)ncc3F)C1)N2 (single isomer, unassigned) [Example 79] | – |
| 17 | COc1cc(OC)cc([C@@H](C)C(=O)N2CC[C@@]3(CCc4cc(-c5cnn(C)c5)c(C)nc4N3)C2)c1 (single isomer, unassigned) [Example 91] | – |
| 2.3 | COc1ncc(Cl)c([C@@H](C)C(=O)N2CC[C@@]3(CCc4cc(-c5ncccn5)c(C)nc4N3)C2)n1 (single isomer, unassigned) [Example 86] | – |
| 52 | COc1cc([C@@H](C)C(=O)N2CC[C@@]3(CCc4cc(-c5ncccn5)c(C)nc4N3)C2)cc(OC)n1 (single isomer, unassigned) [Example 84] | – |
| > 250 | COc1ncc(Cl)c([C@@H](C)C(=O)N2CC[C@@]3(CCc4cc(-c5ncccn5)c(C)nc4N3)C2)n1 (single isomer, unassigned) [Example 85] | – |
